Type in all cases: cell-based
One test deals with Hela. The experiment in a line: Antiproliferation assay (MTS), HeLa cells. Particulars: Homo sapiens, 96 h, Table 1, read-out: Antiproliferative IC50 Hela. Summed up:
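Cells seeded after overnight attachment were treated in triplicate for 96 h at 37 °C, 5% CO2, final DMSO below 1%. Viability read by MTS absorbance; concentration-response curves fitted by linear regression against DMSO controls.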

The target in the next test is T1, Hec1-Nek2 interaction (Homo sapiens, UniProt O14777).
T1 construct: endogenous in cells; host or cells: K562
T1 sequence (O14777 1-642): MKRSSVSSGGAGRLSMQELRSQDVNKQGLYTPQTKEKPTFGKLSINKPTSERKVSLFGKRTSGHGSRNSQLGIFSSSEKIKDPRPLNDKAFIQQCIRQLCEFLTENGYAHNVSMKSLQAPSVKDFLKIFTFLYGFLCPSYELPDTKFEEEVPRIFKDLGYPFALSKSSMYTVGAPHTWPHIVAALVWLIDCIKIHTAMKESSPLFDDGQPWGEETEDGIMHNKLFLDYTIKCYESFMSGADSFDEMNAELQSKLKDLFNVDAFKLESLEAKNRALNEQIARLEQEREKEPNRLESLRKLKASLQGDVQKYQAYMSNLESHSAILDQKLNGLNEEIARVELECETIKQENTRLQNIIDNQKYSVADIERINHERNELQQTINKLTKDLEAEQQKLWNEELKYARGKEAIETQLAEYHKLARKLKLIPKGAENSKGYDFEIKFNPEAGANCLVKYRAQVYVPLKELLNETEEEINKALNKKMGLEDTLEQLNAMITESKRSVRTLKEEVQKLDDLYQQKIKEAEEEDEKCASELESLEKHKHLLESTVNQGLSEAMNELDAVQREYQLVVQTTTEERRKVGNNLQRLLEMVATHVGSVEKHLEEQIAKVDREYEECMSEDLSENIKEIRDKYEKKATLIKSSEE
The experiment in a line: Co-immunoprecipitation analysis of Hec1-Nek2 interaction in K562 cells. Particulars: K562 cells treated 8 or 16 hours. The method, then:
Co-Immunoprecipitation Analysis: Co-immunoprecipitation (Co-IP)/Western blotting assays were performed to assess the effects of Hec1 inhibitory compounds on Hec1-Nek2 interaction. K562 cells were treated with Hec1 inhibitory compounds as indicated. After harvesting and washing once with cold PBS, cells were lysed on ice in lysis buffer (50 mM Tris (pH 7.5), 250 mM NaCl, 5 mM EDTA (pH 8.0), 0.1% NP-40, 1 mM PMSF, 50 mM NaF, and protease inhibitor cocktail (P/N P8340 Sigma Aldrich, St. Louis Mo. USA) for 30 min. Lysates were then centrifuged at 12,000 rpm at 4° C. for 20 minutes. Input supernatant was incubated in the presence of anti Nek2 antibody (rabbit anti-Nek2, Rockland Immunochemicals, Gilbertsville, Pa. 19525 USA) or IgG control antibody for 2 h at 4° C., followed by the addition protein G coupled to agarose beads (GE Healthcare, Anaheim Calif. 92805 USA). After mixing for 1 h at 4° C., the agarose beads were centrifuged at 12,000 rpm at 4° C. for 20 seconds. The beads were then washed 5 times with cold Co-IP buffer, boiled in SDS-PAGE sample buffer followed by SDS-PAGE. The presence of Hec1 and Nek2 was detected by Western blotting with mouse monoclonal antibodies directed to Hec1 (GeneTex, Inc., Irvine Calif. 92606 USA) and Nek2 (BD Biosciences, San Jose Calif. 95131 USA). […]

In the next test the test system is cyclin B1 and cyclin D1. The experiment in a line: Immunoblot of cyclin B1 and cyclin D1. The settings on record: 1 μM. The method, then:
Immunoblot Analysis: For immunoblotting experiments, cells were plated in a 6-well culture plate and cultured overnight. Cells were incubated with the test compounds for the indicated time and whole cell lysate was harvested by adding 1×SDS-PAGE Sample Buffer (62.5 mM Tris-HCl (pH 6.8 at 25° C.), 2% w/v SDS, 10% glycerol, 50 mM DTT, and 0.01% w/v bromophenol blue or phenol red). Proteins were separated by SDS-PAGE electrophoresis and transferred to PVDF membrane. Protein expression was immunoblotted using various primary antibodies and detected using Immobilon Western Chemiluminescent HRP Substrate (Millipore, Billerica Mass. 01821 USA). Antibodies used include anti-Cleaved Caspase3, (Rabbit, Cell Signaling Technology, Danvers Mass. 01923 USA); anti-PARP (Rabbit, Cell Signaling Technology, Danvers Mass. 01923 USA); anti-MCL-1 (mouse, BD Biosciences, San Jose Calif. 95131 USA); anti-XIAP (rabbit, Cell Signaling Technology, Danvers Mass. 01923 USA); anti-Bcl-2 (mouse, Santa Cruz Biotechnology, Santa Cruz Calif. 95060); anti-Cyclin BI (mouse, BD Biosciences, San Jose Calif. 95131 USA); anti-Cyclin D1 (mouse, Santa Cruz Biotechnology, Santa Cruz Calif. 95060); Anti-Nek2 (mouse, BD Biosciences, San Jose Calif. 95131 USA); Anti-HEC1, (rabbit, GeneTex, Inc., Irvine Calif. 92606 USA); and anti-actin (mouse, Millipore, Billerica Mass. 01821 USA). […]

The text below walks through data of US8999983B2, “Modulators of Hec1 activity and methods therefor” (Taivex Therapeutics Corporation, priority 2011, dated 2015).

Structures are written as SMILES.

Regarding `COCCOc1cnc(Sc2cc(C)c(-c3csc(NC(=O)c4ccncc4)n3)c(C)c2)cn1` [Compound 27, N-(4-{4-(5-(2-methoxyethoxy)pyrazin-2-ylthio)-2,6-dimethylphenyl}thiazol-2-yl)isonicotinamide], the IC50 in the test with Hela amounted to 21.1 nM. Further, the “Hec1/Nek2 interaction (Hec1 in Nek2 immunoprecipitates)” value at Hec1-Nek2 interaction is listed as “significantly disrupted Hec1/Nek2 interaction”. For the same molecule, in the test on cyclin B1 and cyclin D1, the “cyclin B1 and cyclin D1 levels” value was “cyclin BI and cyclin D degradation”.
